Earlier results as cited in patent US9089619B2, “Hybrid nanocrystals for treatment and bioimaging of disease” (University of Kentucky, priority 2005, dated 2015).

Conditions: water at 25° C.

Nc1nc2ncc(CNc3ccc(C(=O)N[C@@H](CCC(=O)O)C(=O)O)cc3)nc2c(=O)[nH]1 [Folic acid]
solubility in water: about 1.6 μg/ml
